Source: patent US12495798B2, “Nicotinamide compound and herbicidal composition comprising compound” (KOREA RESEARCH INSTITUTE OF CHEMICAL TECHNOLOGY, priority 2019, dated 2025)

Assays:
Type in all cases: in vivo
crabgrass [1] = assay: Herbicidal activity test against upland field weeds (foliar treatment test); conditions: Digitaria sanguinalis, 50 g ai/ha, scale 0-100
In short: (§1)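 Visual 0–100 control ratings relative to untreated plants, taken 14 (or 21) days after spraying foliage at 50 or 75 g a.i./ha. Spray solution: 50% acetone with 0.1% Tween-20; plants kept in greenhouse at 30±5 °C, 14 h light/10 h dark.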

velvetleaf = assay: as above; design: key to Foliar treatment herbicidal activity, velvet leaf: 0 (no control); 100 (complete control); conditions: 50 g ai/ha; for pest or weed control at 50 g/ha: Abutilon theophrasti, scale 0-100, read-out: Foliar treatment herbicidal activity, velvet leaf
In short: as §1

cocklebur = assay: Herbicidal activity test against upland field weeds (soil treatment test); design: key to Soil treatment herbicidal activity, Cocklebur: 0 (no control); 100 (complete control); conditions: 50 g ai/ha, scale 0 (no control) to 100 (complete control)
In short: (§2)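 Weed control scored visually on a 0 (none) to 100 (complete) scale versus untreated pots at 14 or 21 days in greenhouse (30±5 °C, 14 h light). Test compounds, 50 or 75 g a.i./ha in 50% acetone/0.1% Tween-20, hand-sprayed onto soil one day post-sowing.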

black nightshade = assay: Herbicidal activity test against upland field weeds (foliar treatment test); design: key to Foliar treatment herbicidal activity, black nightshade: 0 (no control); 100 (complete control); conditions: 50 g ai/ha, scale 0-100; for pest or weed control at 50 g/ha: Solanum nigrum
In short: as §1

fall panicum [2] = assay: Herbicidal activity test against upland field weeds (soil treatment test); conditions: Panicum dichotomiflorum, 50 g ai/ha, scale 0 (no control) to 100 (complete control)
In short: as §2

fall panicum [3] = assay: Herbicidal activity test against upland field weeds (foliar treatment test); conditions: Panicum dichotomiflorum, 50 g ai/ha, scale 0-100
In short: as §1

quack grass = assay: as above; design: key to Foliar treatment herbicidal activity, quack grass: 0 (no control); 100 (complete control); conditions: 50 g ai/ha, scale 0-100
In short: as §1

wheat = assay: Phytotoxicity test for field crops (soil treatment test); design: key: 0 (no harm); 9 (complete withered)
In short: (§3)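 Pre-emergence soil spray one day after sowing in sterilized horticultural soil (pH 6.1, organic matter 1.0%), test compounds diluted in 33% acetone/0.1% Tween-20 to 19˜300 g a.i./ha. Greenhouse at 30±5° C, 14/10 h light/dark. Phytotoxicity scored visually 10 and 20 days after treatment on a 0 (no harm) to 9 (complete withered) scale versus untreated control.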

soybean = assay: as above; design: key: 0 (no harm); 9 (complete withered)
In short: as §3

corn = assay: as above; design: key: 0 (no harm); 9 (complete withered)
In short: as §3

cotton = assay: as above; design: key: 0 (no harm); 9 (complete withered)
In short: as §3

rice = assay: as above; design: key: 0 (no harm); 9 (complete withered)
In short: as §3

crabgrass [4] = assay: Herbicidal activity test against upland field weeds (soil treatment test); design: key to Soil treatment herbicidal activity, Crabgrass: 0 (no control); 100 (complete control); conditions: 50 g ai/ha, scale 0 (no control) to 100 (complete control); for pest or weed control at 50 g/ha: Digitaria sanguinalis
In short: as §2

[5] = 50 g ai/ha, Wheat (10 days after treatment)
[6] = 50 g ai/ha, Wheat (20 days after treatment)
[7] = 100 g ai/ha, Wheat (10 days after treatment)
[8] = 100 g ai/ha, Wheat (20 days after treatment)
[9] = 50 g ai/ha, Soybean (10 days after treatment)
[10] = 50 g ai/ha, Soybean (20 days after treatment)
[11] = 100 g ai/ha, Soybean (10 days after treatment)
[12] = 100 g ai/ha, Soybean (20 days after treatment)
[13] = 50 g ai/ha, Corn (10 days after treatment)
[14] = 50 g ai/ha, Corn (20 days after treatment)
[15] = 100 g ai/ha, Corn (10 days after treatment)
[16] = 100 g ai/ha, Corn (20 days after treatment)
[17] = 50 g ai/ha, Cotton (10 days after treatment)
[18] = 50 g ai/ha, Cotton (20 days after treatment)
[19] = 100 g ai/ha, Cotton (10 days after treatment)
[20] = 100 g ai/ha, Cotton (20 days after treatment)
[21] = 50 g ai/ha, Rice (10 days after treatment)
[22] = 50 g ai/ha, Rice (20 days after treatment)
[23] = 100 g ai/ha, Rice (10 days after treatment)
[24] = 100 g ai/ha, Rice (20 days after treatment)

| SMILES | pest or weed control at 50 g/ha (crabgrass [1]) [%] | Soil treatment herbicidal activity, Cocklebur (cocklebur) | pest or weed control at 50 g/ha (fall panicum [2]) [%] | pest or weed control at 50 g/ha (fall panicum [3]) [%] | Foliar treatment herbicidal activity, quack grass (quack grass) | Soil treatment phytotoxicity, Wheat (wheat; [5]) | Soil treatment phytotoxicity, Wheat (wheat; [6]) | Soil treatment phytotoxicity, Wheat (wheat; [7]) | Soil treatment phytotoxicity, Soybean (soybean; [9]) | Soil treatment phytotoxicity, Soybean (soybean; [10]) | Soil treatment phytotoxicity, Soybean (soybean; [11]) | Soil treatment phytotoxicity, Soybean (soybean; [12]) | Soil treatment phytotoxicity, Corn (corn; [13]) | Soil treatment phytotoxicity, Corn (corn; [14]) | Soil treatment phytotoxicity, Corn (corn; [15]) | Soil treatment phytotoxicity, Corn (corn; [16]) | Soil treatment phytotoxicity, Cotton (cotton; [17]) | Soil treatment phytotoxicity, Cotton (cotton; [18]) | Soil treatment phytotoxicity, Rice (rice; [21]) | Soil treatment phytotoxicity, Rice (rice; [22]) | also measured |
| --- | --- | --- | --- | --- | --- | --- | --- | --- | --- | --- | --- | --- | --- | --- | --- | --- | --- | --- | --- | --- | --- |
| Cn1nnc(COCc2nc(C(F)(F)F)ccc2C(=O)N(C(=O)c2ccccc2)c2nnnn2C)n1 [Compound No. 2-68, N-benzoyl-N-(1-methyl-1H-tetrazol-5-yl)-2-(((2-methyl-2H-tetrazol-5-yl)methoxy)methyl)-6-(trifluoromethyl)nicotinamide] | 98 | 0 | 90 | 98 | 0 | 0 | 0 | 0 | 0 | 0 | 0 | 0 | 0 | 0 | 0 | 0 | 1 | 5 | 6 | 7 | Foliar treatment herbicidal activity, velvet leaf (velvetleaf; scale 0-100): 100; Foliar treatment herbicidal activity, black nightshade (black nightshade): 100; Soil treatment phytotoxicity, Wheat (wheat; [8]): 0; Soil treatment phytotoxicity, Cotton (cotton; [19]): 3; Soil treatment phytotoxicity, Cotton (cotton; [20]): 9; Soil treatment phytotoxicity, Rice (rice; [23]): 8; Soil treatment phytotoxicity, Rice (rice; [24]): 9; Soil treatment herbicidal activity, Crabgrass (crabgrass [4]): 100 |
| Cn1nnc(COCc2nc(C(F)(F)F)ccc2C(=O)N(c2nnnn2C)S(C)(=O)=O)n1 [Compound No. 2-69, N-(1-methyl-1H-tetrazol-5-yl)-2-(((2-methyl-2H-tetrazol-5-yl)methoxy)methyl)-N-(methylsulfonyl)-6-(trifluoromethyl)nicotinamide] | 70 | 0 | 98 | 60 | 0 | 0 | 1 |  | 0 | 0 |  |  | 0 | 0 |  |  | 1 | 5 | 7 | 8 | pest or weed control at 50 g/ha (velvetleaf): 80%; pest or weed control at 50 g/ha (black nightshade): 95%; pest or weed control at 50 g/ha (crabgrass [4]): 98% |
| Cn1nnc(COCc2nc(C(F)(F)Cl)ccc2C(=O)Nc2nnnn2C)n1 [Compound No. 2-78, 6-(chlorodifluoromethyl)-N-(1-methyl-1H-tetrazol-5-yl)-2-(((2-methyl-2H-tetrazol-5-yl)methoxy)methyl)nicotinamide] | 70 |  | 90 | 70 | 0 | 0 | 0 | 0 | 0 | 0 | 0 | 0 | 0 | 0 | 1 | 0 | 2 | 6.5 | 6 | 6 | pest or weed control at 50 g/ha (velvetleaf): 60%; pest or weed control at 50 g/ha (cocklebur; Xanthium strumarium): 70%; pest or weed control at 50 g/ha (black nightshade): 95%; Soil treatment phytotoxicity, Wheat (wheat; [8]): 0; Soil treatment phytotoxicity, Cotton (cotton; [19]): 3; Soil treatment phytotoxicity, Cotton (cotton; [20]): 9; Soil treatment phytotoxicity, Rice (rice; [23]): 9; Soil treatment phytotoxicity, Rice (rice; [24]): 9; Soil treatment herbicidal activity, Crabgrass (crabgrass [4]): 100 |
| Cn1nnc(COCc2nc(C(F)(F)C(F)(F)F)ccc2C(=O)Nc2nnnn2C)n1 [Compound No. 2-81, N-(1-methyl-1H-tetrazol-5-yl)-2-(((2-methyl-2H-tetrazol-5-yl)methoxy)methyl)-6-(perfluoroethyl)nicotinamide] | 70 | 100 | 98 | 70 | 0 | 0 | 0 | 0 | 0 | 0 | 0 | 0 | 0 | 0 | 1 | 0 | 0 | 4 | 6 | 7 | pest or weed control at 50 g/ha (velvetleaf): 90%; pest or weed control at 50 g/ha (black nightshade): 95%; Soil treatment phytotoxicity, Wheat (wheat; [8]): 0; Soil treatment phytotoxicity, Cotton (cotton; [19]): 1; Soil treatment phytotoxicity, Cotton (cotton; [20]): 6; Soil treatment phytotoxicity, Rice (rice; [23]): 8; Soil treatment phytotoxicity, Rice (rice; [24]): 8; Soil treatment herbicidal activity, Crabgrass (crabgrass [4]): 100 |
| Cn1nnc(COCc2nc(C(F)F)ccc2C(=O)Nc2nnnn2C)n1 [Compound No. 2-84, 6-(difluoromethyl)-N-(1-methyl-1H-tetrazol-5-yl)-2-(((2-methyl-2H-tetrazol-5-yl)methoxy)methyl)nicotinamide] | 95 | 0 | 20 | 90 | 0 | 0 | 0 | 0 | 0 | 0 | 0 | 0 | 0 | 0 | 1 | 0 | 0 | 6 | 5 | 3 | pest or weed control at 50 g/ha (velvetleaf): 98%; Foliar treatment herbicidal activity, black nightshade (black nightshade): 100; Soil treatment phytotoxicity, Cotton (cotton; [19]): 3; Soil treatment phytotoxicity, Cotton (cotton; [20]): 7; Soil treatment phytotoxicity, Rice (rice; [23]): 6; Soil treatment phytotoxicity, Rice (rice; [24]): 7; pest or weed control at 50 g/ha (crabgrass [4]): 80% |
